Measured values from article PMC10940605, “Design, synthesis and in vitro anticancer activity of some new lomefloxacin derivatives” (Scientific Reports, 2024).

Assays:
[1] = system: 60 human cancer cell lines; assay: NCI-60 SRB screen, whole panel; format: cell-based; details: Homo sapiens, 48 h; One Dose Mean Graph, Conc 1.00E-5 Molar; read-out: Mean Growth Percent
melanoma SK-MEL-5 = assay: NCI-60 SRB screen; format: cell-based; details: Homo sapiens; SK-MEL-5, 10^–5 Molar; read-out: Percent growth inhibition
Method: (§1) All newly synthesized compounds were selected and screened for anticancer activity against 60 human cancer cell lines representing 9 types of tumors including leukemia, melanoma, lung, colon, CNS, ovarian, renal, prostate, and breast cancers at the National Cancer Institute (NCI), Bethesda, USA. Screening was performed utilizing a single dose (10^−5 M concentration) and cells were incubated for 48 h. The end point was determined using sulforhodamine B (SRB) dye.
(§2) In this study, all the 16 newly synthesized compounds were submitted to the National Cancer Institute (USA) for anticancer evaluation and were selected and evaluated using 60 different human tumor cell lines representing lung, colon, CNS, ovarian, renal, prostate, breast cancers as well as leukemia and melanoma. A single dose (10^–5 Molar) was used for the initial screening for evaluation of anticancer activity. The 60 human cancer cell lines were provided by the national cancer institute biomedical research campus in Frederick, Maryland.
(§3) 60 different human cancer cell lines were utilized to screen the newly synthesized compounds for anticancer activity according to the previously reported standard procedure[24]–[26] as follows: • 96 well microtiter plates were used to inoculate the cells at […] ranging from 4000–5000 cells/well depending on the replication time of individual cell lines. Roswell Park Memorial Institute culture medium (RPMI 1640 medium) containing 2 mM L-glutamine and fetal bovine serum was used to grow the cells at 37 °C, 5% CO2, 95% air and 100% relative humidity for 24 h. • Fixation of cells in two plates of each cell line in situ was done using trichloroacetic acid (TCA). This represented the measurement of cell population at the time of drug addition (Tz). • Dimethyl sulfoxide (DMSO) was used to dissolve the synthesized compounds at 400-fold the desired final maximum concentration and frozen prior to use. This frozen concentrate was melted and diluted to twice the final concentration with complete medium containing 50 µg/mL gentamycin at time of drug addition. • The final compound concentration was obtained by adding 100 µL of the synthesized compounds to the appropriate microtiter wells already containing 100 µL followed by incubation of the plates at 37 °C, 5% CO2, 95% air and 100% relative humidity for 48 h. • Fixation of the cells was achieved by gentle addition of 50 µL of cold 50% (w/v) TCA followed by incubation for 60 min at 4 °C. The supernatant was then discarded and the plates are washed 5 times with tap water and air dried. • Sulphorhodamine B (SRB) solution (100 µL) at 0.4% (w/v) in 1% acetic acid was added to each plate followed by incubation for 10 min at room temperature. The unbound dye was then removed by washing five times with 1% acetic acid and plates were air dried. • Dissolution of the bound stain was done using […] trizma base and the absorbance was read at […] wavelength using an automated plate reader. • The percentage growth inhibition was calculated as follows: Ti-Tz/C-Tz×100forconcentrationswhichTi≥Tz Ti-Tz/Tz×100forconcentrationswhichTi<Tz • Time zero (Tz) • Control growth (C) • Test growth in the presence of drug (Ti)

SW-620 = assay: NCI-60 SRB screen; format: cell-based; details: Homo sapiens; SW-620, 10^–5 Molar; read-out: Percent growth inhibition
Method: as §1, §2, §3

SN12C = assay: NCI-60 SRB screen; format: cell-based; details: Homo sapiens, 10^–5 Molar, read-out: Percent growth inhibition
Method: as §1, §2, §3

MCF7 = assay: NCI-60 SRB screen; format: cell-based; details: Homo sapiens; MCF7, 10^–5 Molar; read-out: Percent growth inhibition
Method: as §1, §2, §3

SF-539 = assay: NCI-60 SRB screen; format: cell-based; details: Homo sapiens; SF-539, 10^–5 Molar; read-out: Percent growth inhibition
Method: as §1, §2, §3

SNB-75 = assay: NCI-60 SRB screen; format: cell-based; details: Homo sapiens; SNB-75, 10^–5 Molar; read-out: Percent growth inhibition
Method: as §1, §2, §3

LOX IMVI = assay: NCI-60 SRB screen; format: cell-based; details: Homo sapiens, 10^–5 Molar, read-out: Percent growth inhibition
Method: as §1, §2, §3

HS 578T = assay: NCI-60 SRB screen; format: cell-based; details: Homo sapiens, 10^–5 Molar, read-out: Percent growth inhibition
Method: as §1, §2, §3

RXF 393 = assay: NCI-60 SRB screen; format: cell-based; details: Homo sapiens, 48 h; RXF 393, 10^–5 Molar; read-out: Percent growth inhibition
Method: as §1, §2, §3

UACC-62 = assay: NCI-60 SRB screen; format: cell-based; details: Homo sapiens; UACC-62, 10^–5 Molar; read-out: Percent growth inhibition
Method: as §1, §2, §3

CAKI-1 = assay: NCI-60 SRB screen; format: cell-based; details: Homo sapiens; CAKI-1, 10^–5 Molar; read-out: Percent growth inhibition
Method: as §1, §2, §3

UO-31 = assay: NCI-60 SRB screen; format: cell-based; details: Homo sapiens; UO-31, 10^–5 Molar; read-out: Percent growth inhibition
Method: as §1, §2, §3

OVCAR-5 = assay: NCI-60 SRB screen; format: cell-based; details: Homo sapiens; OVCAR-5, 10^–5 Molar; read-out: Percent growth inhibition
Method: as §1, §2, §3

PC-3 = assay: NCI-60 SRB screen; format: cell-based; details: Homo sapiens; PC-3, 10^–5 Molar; read-out: Percent growth inhibition
Method: as §1, §2, §3

SNB-19 = assay: NCI-60 SRB screen; format: cell-based; details: Homo sapiens; SNB-19, 10^–5 Molar; read-out: Percent growth inhibition
Method: as §1, §2, §3

IGROV1 = assay: NCI-60 SRB screen; format: cell-based; details: Homo sapiens, IGROV-1; IGROV1, 10^–5 Molar; read-out: Percent growth inhibition
Method: as §1, §2, §3

MDA-MB-468 = assay: NCI-60 SRB screen; format: cell-based; details: Homo sapiens; MDA-MB-468, 10^–5 Molar; read-out: Percent growth inhibition
Method: as §1, §2, §3

T-47D = assay: NCI-60 SRB screen; format: cell-based; details: Homo sapiens, T47D, 10^–5 Molar, read-out: Percent growth inhibition
Method: as §1, §2, §3

SF-268 = assay: NCI-60 SRB screen; format: cell-based; details: Homo sapiens; SF-268, 10^–5 Molar; read-out: Percent growth inhibition
Method: as §1, §2, §3

NCI-H226 = assay: NCI-60 SRB screen; format: cell-based; details: Homo sapiens; NCI-H226, 10^–5 Molar; read-out: Percent growth inhibition
Method: as §1, §2, §3

leukemia SR = assay: NCI-60 SRB screen; format: cell-based; details: Homo sapiens; SR, 10^–5 Molar; read-out: Percent growth inhibition
Method: as §1, §2, §3

786-0 = assay: NCI-60 SRB screen; format: cell-based; details: Homo sapiens; 786-0, 10^–5 Molar; read-out: Percent growth inhibition
Method: as §1, §2, §3

MDA-MB-231/ATCC = assay: NCI-60 SRB screen; format: cell-based; details: Homo sapiens, 10^–5 Molar, read-out: Percent growth inhibition
Method: as §1, §2, §3

NCI-H322M = assay: NCI-60 SRB screen; format: cell-based; details: Homo sapiens, 10^–5 Molar, read-out: Percent growth inhibition
Method: as §1, §2, §3

Compound: CCn1cc(C(=O)O)c(=O)c2cc(F)c(N3CCN(CC(=O)Nc4ccc(S(=O)(=O)Nc5nccc(C)n5)cc4)C(C)C3)c(F)c21 (stereo not shown) [Compound 5f, 1-Ethyl-6,8-difluoro-7-(3-methyl-4-(2-((4-(N-(4-methylpyrimidin-2-yl)sulfamoyl)phenyl)amino)-2-oxoethyl)piperazin-1-yl)-4-oxo-1,4-dihydroquinoline-3-carboxylic acid]
- activity at 10 µM [1]: 102%
- inhibition at 10 µM (melanoma SK-MEL-5): 193%
- inhibition at 10 µM (SW-620): 3.4%
- inhibition at 10 µM (SN12C): 1.96%
- inhibition at 10 µM (MCF7): 3.33%
- inhibition at 10 µM (SF-539): 0.79%
- inhibition at 10 µM (SNB-75): 4.26%
- inhibition at 10 µM (LOX IMVI): 4.41%
- inhibition at 10 µM (HS 578T): 0.4%
- inhibition at 10 µM (RXF 393): 0.98%
- inhibition at 10 µM (UACC-62): 5.79%
- inhibition at 10 µM (CAKI-1): 11.4%
- inhibition at 10 µM (UO-31): 16.7%
- inhibition at 10 µM (OVCAR-5): 1.48%
- inhibition at 10 µM (PC-3): 2.04%
- inhibition at 10 µM (SNB-19): 1.26%
- inhibition at 10 µM (IGROV1): 0.3%
- inhibition at 10 µM (MDA-MB-468): 3.63%
- inhibition at 10 µM (T-47D): 1.12%
- inhibition at 10 µM (SF-268): 1.74%
- inhibition at 10 µM (NCI-H226): 2.92%
- melting point: 247 to 249 °C

Compound: CCn1cc(C(=O)O)c(=O)c2cc(F)c(N3CCN(C=O)C(C)C3)c(F)c21 (stereo not shown) [Compound 6, 1-Ethyl-6,8-difluoro-7-(4-formyl-3-methylpiperazin-1-yl)-4-oxo-1,4-dihydroquinoline-3-carboxylic acid]
- activity at 10 µM [1]: 103%
- inhibition at 10 µM (SW-620): 3.48%
- inhibition at 10 µM (leukemia SR): 27.8%
- inhibition at 10 µM (SNB-75): 5.57%
- inhibition at 10 µM (786-0): 1.77%
- inhibition at 10 µM (LOX IMVI): 6.49%
- inhibition at 10 µM (MDA-MB-231/ATCC): 0.72%
- inhibition at 10 µM (UACC-62): 7.29%
- inhibition at 10 µM (CAKI-1): 4.66%
- inhibition at 10 µM (UO-31): 12.9%
- inhibition at 10 µM (NCI-H322M): 2.38%
- inhibition at 10 µM (MDA-MB-468): 2.93%
- inhibition at 10 µM (SF-268): 2.98%
- inhibition at 10 µM (NCI-H226): 4.91%
- melting point: 289 to 291 °C
